Among the test systems are HT-29; SF-539; U-251; HCT-116; A498; UACC-257; HCT-15; CCRF-CEM; OVCAR-5; HCC 2998; UO-31; Hs-578T; OVCAR-3; UACC-62; IGROV-1; SN12C; RPMI-8226; SK-MEL-28; SK-OV-3; SNB-75.
Holding throughout (assay): NCI tumour cell line growth inhibition, 48 h

Molecules are shown by their SMILES.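 Each compound was tested at five concentrations against cells in 96-well plates for 48 hours. Here, GI50 denotes the concentration required for 50% inhibition of growth.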 Calls of active or inactive are those of the source. No stated cut-off is given here; in the data, active = GI50 up to about 1.1 µM and inactive = higher.

`Cc1cn2c(/C=N/NC(=N)N)c(-c3cccc([N+](=O)[O-])c3)nc2s1`: the GI50 with HT-29 is 0.514 µM (active); in the experiment on SF-539, 1.98 µM (inactive); with U-251, 1.6 µM (inactive); in the experiment on HCT-116, 0.366 µM (active); with A498, 1.48 µM (inactive); in the experiment on UACC-257, 2.11 µM (inactive). The GI50 with HCT-15 is 4.41 µM; with CCRF-CEM it was 0.532 µM (active); in the experiment on OVCAR-5 it was 2.07 µM (inactive); in the experiment with HCC 2998, 0.839 µM (active); with UO-31, 5.62 µM (inactive); with Hs-578T, 2.38 µM (inactive). Further, the GI50 with OVCAR-3 is 1.26 µM (inactive); in the experiment with UACC-62, 1.69 µM (inactive); in the experiment on IGROV-1 it was 5.56 µM (inactive); with SN12C, 1.71 µM (inactive); in the experiment on RPMI-8226 it was 3.2 µM (inactive); in the experiment on SK-MEL-28, 1.29 µM (inactive).
For `CC1S/C(=N\N=C2/C(=O)Nc3ccc(Br)cc32)N(C2CCCCC2)C1=O` (stereo not drawn), the GI50 with HT-29 is 8.69 µM (inactive); in the experiment with SF-539 it was 3.66 µM (inactive); in the experiment on U-251, 2.54 µM (inactive); in the experiment with HCT-116 it was 2.24 µM (inactive); in the experiment with A498, 3.04 µM (inactive); in the experiment with UACC-257 it was 21 µM (inactive). Further, the GI50 in the experiment on HCT-15 is 3.87 µM; in the experiment with CCRF-CEM it was 39.8 µM (inactive); in the experiment on OVCAR-5 it was 14.4 µM (inactive); with HCC 2998, 4.08 µM (inactive); in the experiment on UO-31, 1.06 µM (active); in the experiment on SK-OV-3, 2.84 µM (inactive). The GI50 is 3.22 µM (inactive) in the experiment with Hs-578T; 2.75 µM (inactive) in the experiment on OVCAR-3; 2.01 µM (inactive) in the experiment on UACC-62; 2.93 µM (inactive) in the experiment on SN12C; 16.8 µM (inactive) in the experiment on RPMI-8226; 6.08 µM (inactive) in the experiment on SK-MEL-28.
In the case of `CC(=O)NCCCCN(CCCNC(C)=O)C(=O)CNS(=O)(=O)c1cccc2c(N(C)C)cccc12`, the GI50 in the experiment on HT-29, in the experiment with SF-539, in the experiment with U-251, with HCT-116, in the experiment with A498 and in the experiment on UACC-257 was > 100 µM (inactive) in each case. In addition, the GI50 with HCT-15 is more than 100 µM; with CCRF-CEM, > 100 µM (inactive); in the experiment with OVCAR-5 it was > 100 µM (inactive); in the experiment with HCC 2998 it was > 100 µM (inactive); with UO-31 it was > 100 µM (inactive); in the experiment on SK-OV-3, > 100 µM (inactive). The GI50 with Hs-578T, in the experiment with OVCAR-3, in the experiment on UACC-62, with IGROV-1, in the experiment with SN12C and in the experiment on RPMI-8226 was > 100 µM (inactive) throughout. The GI50 with SK-MEL-28 is > 100 µM (inactive).
Regarding `Clc1ccc(/N=C/C=C/Nc2ccc(Cl)cn2)nc1`, the GI50 with HT-29 was 7.8 µM (inactive); with SF-539, 17.3 µM (inactive); with U-251, 8.26 µM (inactive); in the experiment with HCT-116 it was 12.2 µM (inactive); with A498, 20.1 µM (inactive); with UACC-257 it was 17.1 µM (inactive). For the same compound, the GI50 in the experiment on HCT-15 is 1.76 µM; in the experiment with CCRF-CEM, 3.22 µM (inactive); in the experiment with OVCAR-5, 16.3 µM (inactive); in the experiment on UO-31 it was 15.6 µM (inactive); with SK-OV-3, 21.8 µM (inactive); in the experiment on Hs-578T, 5.14 µM (inactive). For the same compound, the GI50 with SNB-75 was 13 µM (inactive); with OVCAR-3 it was 13.5 µM (inactive); with UACC-62, 12.9 µM (inactive); in the experiment on IGROV-1 it was 15 µM (inactive); in the experiment with SN12C, 14.5 µM (inactive); in the experiment with RPMI-8226, 10.4 µM (inactive). Further, in the experiment with SK-MEL-28, the GI50 was 18.6 µM (inactive).
For `O=[N+]([O-])c1ccc(SN=S=NSc2cccc(SN=S=NSc3ccc([N+](=O)[O-])cc3)c2)cc1`, the GI50 was 33.2 µM (inactive) in the experiment with HT-29; 16.4 µM (inactive) with U-251; 29.7 µM (inactive) in the experiment on HCT-116; 94.8 µM (inactive) in the experiment on A498; 45.3 µM (inactive) in the experiment with UACC-257; 17.7 µM with HCT-15. Besides, the GI50 with CCRF-CEM is 6 µM (inactive); in the experiment with OVCAR-5, 25.4 µM (inactive); with HCC 2998, > 100 µM (inactive); in the experiment with UO-31, 23.8 µM (inactive); in the experiment with SK-OV-3 it was > 100 µM (inactive); in the experiment on Hs-578T it was 58.3 µM (inactive). Also, the GI50 in the experiment with OVCAR-3 was 62.1 µM (inactive); with UACC-62 it was 37.8 µM (inactive); in the experiment on IGROV-1, 39.8 µM (inactive); with SN12C, 12.4 µM (inactive); with RPMI-8226 it was 27.7 µM (inactive); in the experiment on SK-MEL-28, 35.7 µM (inactive).
As to `O=C(NNc1cn[nH]c(=O)n1)c1cccc2nc3ccccc3nc12`, the GI50 in the experiment on HT-29 is > 100 µM (inactive); with SF-539 it was 46.7 µM (inactive); with U-251, 27.9 µM (inactive); in the experiment on HCT-116 it was > 100 µM (inactive); with A498, > 100 µM (inactive); in the experiment on UACC-257 it was > 100 µM (inactive). Moreover, the GI50 is more than 100 µM in the experiment with HCT-15; 45.7 µM (inactive) in the experiment on CCRF-CEM; > 100 µM (inactive) with OVCAR-5; 25.1 µM (inactive) with HCC 2998; 33.4 µM (inactive) with SK-OV-3; 63.2 µM (inactive) with Hs-578T. The GI50 was 68.7 µM (inactive) in the experiment with OVCAR-3; 61.5 µM (inactive) with UACC-62; 38.2 µM (inactive) with IGROV-1; 60.1 µM (inactive) in the experiment on SN12C; > 100 µM (inactive) in the experiment with RPMI-8226; > 100 µM (inactive) in the experiment with SK-MEL-28.
As for `CCCCCCCCCCCCCCCCC(C(=O)O)C(O)(CC(=O)O)C(=O)O` (stereo not drawn), the GI50 is 21.2 µM (inactive) with HT-29; 28.1 µM (inactive) in the experiment on SF-539; 16.7 µM (inactive) in the experiment on U-251; 19.1 µM (inactive) in the experiment with HCT-116; 21 µM (inactive) in the experiment on A498; 34.1 µM (inactive) in the experiment on UACC-257. The GI50 in the experiment with HCT-15 is 21.5 µM; with CCRF-CEM, 27.1 µM (inactive); in the experiment with OVCAR-5 it was 17.9 µM (inactive); in the experiment with UO-31, 20.3 µM (inactive); in the experiment on SK-OV-3, 17.7 µM (inactive); in the experiment on Hs-578T it was 24.1 µM (inactive). In addition, the GI50 in the experiment with SNB-75 was 20 µM (inactive); in the experiment with OVCAR-3 it was 18.5 µM (inactive); in the experiment with UACC-62, 18.2 µM (inactive); in the experiment on IGROV-1 it was 22.1 µM (inactive); in the experiment with SN12C, 21.7 µM (inactive); with RPMI-8226, 26.7 µM (inactive). Also, the GI50 in the experiment on SK-MEL-28 is 23.9 µM (inactive).
Take `Cn1cc(NC(=O)c2cc(NC(=O)c3cc(NC=O)cn3C)cn2C)cc1C(=O)NCCC(=N)N` [STALLIMYCIN]: the GI50 with HT-29 was > 100 µM (inactive); with SF-539, > 100 µM (inactive); with U-251, > 100 µM (inactive); in the experiment with HCT-116 it was > 100 µM (inactive); in the experiment with A498, 87.9 µM (inactive); with UACC-257, > 100 µM (inactive). In addition, the GI50 in the experiment on HCT-15 is more than 100 µM; in the experiment on CCRF-CEM it was > 100 µM (inactive); in the experiment on OVCAR-5 it was > 100 µM (inactive); in the experiment on UO-31, > 100 µM (inactive); with SK-OV-3, > 100 µM (inactive); in the experiment on Hs-578T it was 53.1 µM (inactive). For the same compound, the GI50 in the experiment with SNB-75 is 22.8 µM (inactive); in the experiment with OVCAR-3, > 100 µM (inactive); in the experiment with UACC-62 it was 61.4 µM (inactive); in the experiment with IGROV-1, > 100 µM (inactive); with SN12C it was > 100 µM (inactive); in the experiment on RPMI-8226, > 100 µM (inactive). Moreover, the GI50 in the experiment on SK-MEL-28 is > 100 µM (inactive).

(Values after ChEMBL document CHEMBL1201862, “PubChem BioAssay data set” (2004).)
